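Tested at 5 concentrations; 48 h exposure; 96-well plates; endpoints linearly interpolated, else capped at highest concentration. GI50 marks 50% less growth.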 The source made the active and inactive calls. No stated cut-off is given here; in the data, active = GI50 up to about 1.1 µM and inactive = higher.

These results are taken from ChEMBL document CHEMBL1201862, “PubChem BioAssay data set” (2004).

Test systems include HOP-92; RXF 393; IGROV-1; OVCAR-3; OVCAR-8; M14; HCT-15; OVCAR-4; CAKI-1; SK-MEL-28; SK-MEL-5; HCC 2998; SF-295; SNB-19; TK-10; SK-MEL-2; NCI-H226; UO-31; SN12C; OVCAR-5.
Test in all cases: NCI anticancer screen, dose series, 48 h

As for `CC(=O)OCCCCn1cnc2nc(Nc3ccccc3)nc(Cl)c21`, the GI50 in the experiment on HOP-92 was 51.4 µM (inactive); with RXF 393 it was 68.7 µM (inactive); with IGROV-1, > 100 µM (inactive); with OVCAR-3, 55.1 µM (inactive); with OVCAR-8 it was > 100 µM (inactive); with M14, 59.6 µM (inactive). In addition, the GI50 with HCT-15 was 73.1 µM; with OVCAR-4 it was 65.3 µM (inactive); with CAKI-1, 14 µM (inactive); with SK-MEL-28, > 100 µM (inactive); with SK-MEL-5, 42.2 µM (inactive); in the experiment on HCC 2998, 85.3 µM (inactive). Further, the GI50 was 57.1 µM (inactive) with SF-295; > 100 µM (inactive) in the experiment on SNB-19; > 100 µM (inactive) with TK-10; > 100 µM (inactive) with SK-MEL-2; 57 µM (inactive) in the experiment on NCI-H226; 40.6 µM (inactive) with UO-31. Further, the GI50 in the experiment on SN12C is 90.6 µM (inactive).

For the compound `OCCOCn1nc(-c2ccccc2)nc1-c1cnccn1`, the GI50 in the experiment with HOP-92, in the experiment with RXF 393, with IGROV-1, with OVCAR-3, in the experiment on OVCAR-8 and with M14 was > 100 µM (inactive) in each case. Further, the GI50 with HCT-15 was over 100 µM; in the experiment with OVCAR-5, > 100 µM (inactive); in the experiment on OVCAR-4 it was > 100 µM (inactive); with SK-MEL-28, > 100 µM (inactive); in the experiment on SK-MEL-5, > 100 µM (inactive); in the experiment with HCC 2998, > 100 µM (inactive). Further, the GI50 with SF-295, in the experiment with SNB-19, in the experiment on TK-10, in the experiment with UO-31 and in the experiment on SN12C was > 100 µM (inactive) throughout.

Take `CCN1CCC(O)(/C=C/c2ccccc2C)C(C(=O)/C=C/c2ccccc2C)C1` (stereo not given): the GI50 is 1.34 µM (inactive) in the experiment with HOP-92; 1.92 µM (inactive) with RXF 393; 3.62 µM (inactive) with IGROV-1; 2.25 µM (inactive) in the experiment with OVCAR-3; 2.71 µM (inactive) in the experiment with OVCAR-8; 2.04 µM (inactive) in the experiment with M14. Besides, the GI50 with HCT-15 is 1.56 µM; in the experiment with OVCAR-5 it was 1.97 µM (inactive); in the experiment on OVCAR-4, 3.67 µM (inactive); with CAKI-1, 1.82 µM (inactive); in the experiment on SK-MEL-28 it was 2.39 µM (inactive); in the experiment on SK-MEL-5, 1.56 µM (inactive). Moreover, the GI50 is 1.31 µM (inactive) with HCC 2998; 2.34 µM (inactive) with SF-295; 2.94 µM (inactive) with TK-10; 2.33 µM (inactive) in the experiment with SK-MEL-2; 3.79 µM (inactive) in the experiment on NCI-H226; 1.63 µM (inactive) with UO-31. Also, the GI50 in the experiment with SN12C is 2.18 µM (inactive).

Take `NC(=O)c1coc(C2OC(CO)C(O)C2O)n1` (stereo not given): the GI50 was > 100 µM (inactive) in the experiment with HOP-92; > 100 µM (inactive) in the experiment with IGROV-1; > 100 µM (inactive) in the experiment with OVCAR-3; > 100 µM (inactive) in the experiment on M14; over 100 µM with HCT-15; > 100 µM (inactive) in the experiment on OVCAR-5. Besides, the GI50 is > 100 µM (inactive) in the experiment on OVCAR-4; > 10 µM (inactive) in the experiment with CAKI-1; > 100 µM (inactive) in the experiment with SK-MEL-28; > 100 µM (inactive) in the experiment on HCC 2998; > 100 µM (inactive) in the experiment on SNB-19; > 100 µM (inactive) in the experiment with TK-10. The GI50 in the experiment on SK-MEL-2, with NCI-H226, with UO-31 and with SN12C was > 100 µM (inactive) each time.

`O=C(NC1C(O)C(O)C(CO)OC1n1cc(F)c(=O)[nH]c1=O)OCc1ccccc1` (stereo not given): the GI50 is > 100 µM (inactive) in the experiment with HOP-92; > 100 µM (inactive) with RXF 393; > 100 µM (inactive) in the experiment on M14; over 100 µM in the experiment on HCT-15; > 100 µM (inactive) with OVCAR-5; > 100 µM (inactive) with OVCAR-4. The GI50 in the experiment on CAKI-1, with SK-MEL-28, with SK-MEL-5, with HCC 2998, with SF-295 and in the experiment on SNB-19 was > 100 µM (inactive) throughout. Further, the GI50 in the experiment with TK-10, in the experiment with SK-MEL-2, with NCI-H226 and in the experiment on SN12C was > 100 µM (inactive) each time.

On to `CCC1C(c2ccccc2O)c2cc3c(cc2OC1N1CCOCC1)OCO3` (stereo not given), for which the GI50 in the experiment on HOP-92 is 13 µM (inactive); in the experiment on RXF 393, 13.3 µM (inactive); with IGROV-1, 15.8 µM (inactive); with OVCAR-3 it was 12.5 µM (inactive); with OVCAR-8, 20.8 µM (inactive); in the experiment on M14 it was 15.1 µM (inactive). The GI50 with HCT-15 is 9.4 µM; with OVCAR-5, 14.9 µM (inactive); in the experiment on CAKI-1, 16.6 µM (inactive); in the experiment with SK-MEL-28, 17.6 µM (inactive); in the experiment with SK-MEL-5, 16.7 µM (inactive); in the experiment on HCC 2998, 17.3 µM (inactive). The GI50 in the experiment with SF-295 was 14.9 µM (inactive); in the experiment on SNB-19 it was 15.3 µM (inactive); in the experiment with TK-10 it was 13.9 µM (inactive); with SK-MEL-2, 15.5 µM (inactive); in the experiment with NCI-H226, 15.7 µM (inactive); with UO-31, 13.9 µM (inactive). In addition, in the experiment with SN12C, the GI50 was 15.7 µM (inactive).

Take `COC(=O)C1OC(Oc2cc(O)c3c(=O)cc(-c4ccc(O)cc4)oc3c2)C(O)C(O)C1O` (stereo not given): the GI50 is > 100 µM (inactive) in the experiment with HOP-92; > 100 µM (inactive) in the experiment on RXF 393; > 100 µM (inactive) in the experiment with IGROV-1; > 100 µM (inactive) in the experiment on OVCAR-3; > 100 µM (inactive) with OVCAR-8; over 100 µM with HCT-15. Also, the GI50 with OVCAR-5, in the experiment with OVCAR-4, in the experiment with CAKI-1, in the experiment on SK-MEL-28, in the experiment on SK-MEL-5 and with HCC 2998 was > 100 µM (inactive) each time. The GI50 with SF-295, in the experiment with SNB-19, in the experiment with SK-MEL-2, in the experiment on NCI-H226, with UO-31 and with SN12C was > 100 µM (inactive) each time.

Consider `Nc1ncnc2c1ncn2C=C=CCO`, for which the GI50 with HOP-92 is > 100 µM (inactive); in the experiment with RXF 393 it was > 100 µM (inactive); with OVCAR-3, > 100 µM (inactive); in the experiment on OVCAR-8, > 100 µM (inactive); in the experiment on M14, > 100 µM (inactive); with HCT-15, over 100 µM. Further, the GI50 with OVCAR-5, with OVCAR-4, in the experiment with CAKI-1, in the experiment with SK-MEL-28, in the experiment with SK-MEL-5 and in the experiment with HCC 2998 was > 100 µM (inactive) throughout. In addition, the GI50 in the experiment on SF-295, in the experiment with SNB-19, in the experiment with TK-10, with SK-MEL-2, in the experiment on NCI-H226 and with UO-31 was > 100 µM (inactive) each time. Moreover, the GI50 with SN12C is > 100 µM (inactive).

`COc1ccc(-c2nnc(-c3nsc4ccccc34)o2)cc1`: the GI50 in the experiment on HOP-92 is 43.2 µM (inactive); in the experiment with RXF 393 it was 32.5 µM (inactive); in the experiment with IGROV-1, 58.6 µM (inactive); with OVCAR-3, 28.3 µM (inactive); in the experiment with OVCAR-8, 93.5 µM (inactive); with M14, 80.9 µM (inactive). The GI50 is 31.6 µM with HCT-15; > 100 µM (inactive) in the experiment on OVCAR-5; 65.9 µM (inactive) in the experiment on OVCAR-4; > 100 µM (inactive) with SK-MEL-28; 61.9 µM (inactive) with SK-MEL-5; 77.4 µM (inactive) with HCC 2998. The GI50 in the experiment on SNB-19 is > 100 µM (inactive); with TK-10 it was > 100 µM (inactive); with SK-MEL-2 it was > 100 µM (inactive); with UO-31, 25.2 µM (inactive); in the experiment with SN12C it was 59.4 µM (inactive).

Regarding `CCCCC1=C(Br)C(=C(Br)Br)OC1=O`, the GI50 in the experiment with HOP-92 is 11 µM (inactive); in the experiment with RXF 393, 2.09 µM (inactive); in the experiment on IGROV-1, 2.25 µM (inactive); with OVCAR-3 it was 2.55 µM (inactive); with OVCAR-8, 3.17 µM (inactive); in the experiment with HCT-15, 2.2 µM. The GI50 with OVCAR-5 was 16.5 µM (inactive); in the experiment with OVCAR-4, 1.79 µM (inactive); with CAKI-1, 2.15 µM (inactive); with SK-MEL-28, 2.78 µM (inactive); with SK-MEL-5 it was 3.71 µM (inactive); in the experiment on HCC 2998, 6.31 µM (inactive). For the same compound, the GI50 in the experiment on SF-295 is 10.6 µM (inactive); in the experiment on SNB-19, 7.89 µM (inactive); in the experiment with SK-MEL-2, 2.79 µM (inactive); with NCI-H226, 4 µM (inactive); in the experiment with UO-31, 11.9 µM (inactive); in the experiment on SN12C, 2.75 µM (inactive).

As for `Oc1cc(-c2ccccc2)nc2c(S)cccc12`, the GI50 was 63.2 µM (inactive) in the experiment with HOP-92; 35.9 µM (inactive) in the experiment on RXF 393; > 100 µM (inactive) in the experiment on IGROV-1; > 100 µM (inactive) in the experiment on OVCAR-3; > 100 µM (inactive) with OVCAR-8; > 100 µM (inactive) in the experiment with M14. Besides, the GI50 was over 100 µM in the experiment with HCT-15; > 100 µM (inactive) in the experiment with OVCAR-5; > 100 µM (inactive) in the experiment on OVCAR-4; > 100 µM (inactive) with SK-MEL-28; 37.1 µM (inactive) in the experiment with SK-MEL-5; > 100 µM (inactive) with HCC 2998. Besides, the GI50 with SF-295 was > 100 µM (inactive); in the experiment on SNB-19, > 100 µM (inactive); with TK-10, > 100 µM (inactive); with NCI-H226, 17.2 µM (inactive); in the experiment on SN12C, > 100 µM (inactive).
